Legend:
[1] = target: T1, SALDAP (Alpine soil metagenome-derived salicylaldehyde dehydrogenase) (soil metagenome, UniProt Z9QUQ6R3A5); assay: differential scanning fluorimetry (SYPRO Orange); assay type: binding; details: 2 mM ligand, 6 µM enzyme, 50 mM HEPES pH 7.4; no NAD+; untreated enzyme Tm 67.9 ± 0.17 °C
T1 construct: pLATE51, N-terminal 6xHis tag (no cleavage told), E. coli BL21 (DE3), purified; homodimer about 115 kDa; EC 1.2.1.65
Source text: differential scanning fluorimetry (SYPRO Orange) on SALDAP (Alpine soil metagenome-derived salicylaldehyde dehydrogenase)

[2] = target: T1, SALDAP (Alpine soil metagenome-derived salicylaldehyde dehydrogenase); assay: X-ray crystal structure, […] Å; assay type: binding; details: active site, one ligand per monomer; ligand identity chosen by best fit to electron density (putative), no ligand added to the drop is told; pH 4.6
[3] = target: the molecule itself; assay: SEC; analytical gel filtration on Sephacryl S-300 (K 9/30 column), 50 mM Tris-HCl, 17 mM Tris base, 150 mM NaCl pH 7.4, calibrated with standard proteins; mass estimated from the elution volume

Row | Molecule | Melting temperature (T m) (°C) [1] [°C] | X-ray crystal structure, 1.9 Å [2] | stoichiometry N [3]
1 | O=C(O)c1ccc(O)c(O)c1 [protocatechuic acid] | 69.2 ± 0.25 | protocatechuic acid (PCA) was chosen as the ligand bound to the active site | –
2 | Alpine soil metagenome-derived salicylaldehyde dehydrogenase (SALDAP) (enzyme, salicylaldehyde dehydrogenase SALDAP (EC 1.2.1.65) from an alphaproteobacterium, gene found by gene-targeted assembly in an Alpine soil metagenome; The pLATE51 vector adds the N-terminal 6×His tag; also called 6×His-SALDAP; 6×His SALDAP; not shown: 6×His, N-terminal, kept) MRGLTVNFERINPMTNQTASTAKAMTAAEARAVADRAAAGFAGWSVLGPNARRAVLMKAAAALEARKDDFVQAMMAEIGATAGWAMFNLMLAASMIREAAALTTQIGGEVIPSDKPGCLALALREPVGVVLGIAPWNAPIILGVRAIAVPLACGNAVILKASEICPRTHGLIIESFAEAGFPEGVVNVVTNAPQDAGEVVGALIDHPAVKRINFTGSTGVGRIIAKRAAEHLKPCLLELGGKAPLVVLDDADLDEAAKAAAFGAFMNQGQICMSTERIIVVEAIAAEFTRRFAAKAQSMATGDPREGKTPLGAVVDRKTVDHVNTLIDDATAKGARIIAGGKGDSVLMSATVVDGVTAAMKLYRDESFGPIVGIIRAKDEADAVRLANDSEYGLAAAVFTRDTARGLRVARQIRSGICHINGPTVHDEAQMPFGGVGASGYGRFGGKAGIDQFTELRWITMETQPGHFPI | – | – | 2

Source: paper PMC8996149 (Acta Crystallographica. Section F, Structural Biology …, 2022)
